One assay has as its system A375 (melanoma). The assay is described as follows: In vitro cytotoxic activity (MTT) assay, A375. Type of assay: cell-based. Conditions: Homo sapiens, A-375; A375 (melanoma) cells, exposed for 96 hours; read-out: IC50, concentration eliciting 50% inhibition of cell proliferation. Here is the method:
(§1) Compounds 1-15 were screened for their in vitro cytotoxic activity utilizing a 3-(4,5-dimethyl-thiazol-2-yl)-2,5-diphenyltetrazolium bromide (MTT) assay against selected cancer human cell lines consisting of PC3 (prostate), HCT116 (colon), A375 (melanoma), H1299 (lung), MIAPaCa-2 (pancreas), HL60 (leukemia), MCF7 (breast), MDA-MB-231 (breast) (T. Mosmann, J. Immunol. Meth., 1983, 65, 55-63). The cells were cultured at 37° C. in RMPI1640 medium supplemented with 10% fetal bovine serum, 50 IU/mL penicillin, and 50 μg/mL streptomycin in a 5% CO2 incubator. All cells were sub-cultured 3 times/week by trypsinisation. Viable cells were seeded and allowed to adhere for 12 h before a test drug was added in 96-well plates at an initial density of 1.0×10^5 cells/mL. Tumor cell lines were separately exposed to various concentrations of the tested compounds followed by incubation at a temperature of 37° C. during 96 hours inside a medium of fresh RMPI 1640. Cells were subsequently incubated at 37° C. using MTT at 0.5 mg/mL during 4 hours. After removal of supernatant, formazan crystals were dissolved in isopropanol and the optical density was measured at 570 nm. CX-4945 was used as a positive control.

For the next assay, the system named is HCT116 (colon). The assay is described as follows: In vitro cytotoxic activity (MTT) assay, HCT116. Type of assay: cell-based. Conditions: Homo sapiens, HCT-116; HCT116 (colon) cells, exposed for 96 hours; read-out: IC50, concentration eliciting 50% inhibition of cell proliferation. As to the method:
as §1

Another assay has as its system PC3 (prostate). Description: In vitro cytotoxic activity (MTT) assay, PC3. Conditions: Homo sapiens, Prostate cell; PC3 (prostate) cells, exposed for 96 hours; read-out: IC50, concentration eliciting 50% inhibition of cell proliferation. Type of assay: cell-based. Here is the method:
as §1

For another assay, the system named is MCF7 (breast). The assay is described as follows: In vitro cytotoxic activity (MTT) assay, MCF7. Conditions: Homo sapiens; MCF7 (breast) cells, exposed for 96 hours; read-out: IC50, concentration eliciting 50% inhibition of cell proliferation. The assay is classed as cell-based. As to the method: as §1
A further assay deals with MIAPaCa-2 (pancreas). Description: In vitro cytotoxic activity (MTT) assay, MIAPaCa-2. The assay is classed as cell-based. The settings on record: Homo sapiens, MIA PaCa-2; MIAPaCa-2 (pancreas) cells, exposed for 96 hours; read-out: IC50, concentration eliciting 50% inhibition of cell proliferation. As to the method: as §1
The next assay relates to MDA-MB-231 (breast). The assay is described as follows: In vitro cytotoxic activity (MTT) assay, MDA-MB-231. Type of assay: cell-based. The settings on record: Homo sapiens; MDA-MB-231 (breast) cells, exposed for 96 hours; read-out: IC50, concentration eliciting 50% inhibition of cell proliferation. Here is the method: as §1
Assay [1] addresses T1, recombinant human CK2 (RRββ-holoenzyme) (Homo sapiens, UniProt P68400).
T1 construct: purchased Millipore
Description: CK2 Kinase Assay (33P-ATP, filter plate). The settings on record: final ATP concentration 15 μM, 10 min at 30° C.; read-out: protein kinase CK2 IC50. The assay is classed as biochemical. Here is the method: CK2 Kinase Assay was conducted using the protocol as described in Pierre F. et al; J. Med. Chem. 2011, 54, 635-654. The tested compounds in aqueous solution were added at a volume of 10 μL to a reaction mixture comprising 10 μL of assay dilution buffer (ADB; 20 mM MOPS, pH 7.2, 25 mM β-glycerol phosphate, 5 mM EGTA, 1 mM sodium orthovanadate, and 1 mM dithiothreitol), 10 μL of substrate peptide (RRRDDDSDDD, dissolved in ADB at a concentration of 1 mM), 10 μL of recombinant human CK2 (RRββ-holoenzyme, 25 ng dissolved in ADB; Millipore). Reactions were initiated by the addition of 10 μL of ATP solution (90% 75 mMMgCl2, 75 μM ATP (final ATP concentration: 15 μM) dissolved in ADB; 10% [γ-33P] ATP (stock 1mCi/100 μL; 3000 Ci/mmol (Perkin-Elmer) and maintained for 10 min at 30° C. The reactions were quenched with 100 μL of 0.75% phosphoric acid and then transferred to and filtered through a phosphor cellulose filter plate (Millipore). After washing each well five times with 0.75% phosphoric acid, the plate was dried under vacuum for 5 min and, following the addition of 15 μL of scintillation fluid to each well, the residual radioactivity was measured using a Wallac luminescence counter. The IC50 values were derived from eight concentrations of test inhibitors.

For a further assay, the system named is H1299 (lung). Description: In vitro cytotoxic activity (MTT) assay, H1299. Conditions: Homo sapiens, NCI-H1299; H1299 (lung) cells, exposed for 96 hours; read-out: IC50, concentration eliciting 50% inhibition of cell proliferation. The assay is classed as cell-based. As to the method: as §1
A further assay deals with HL60 (leukemia). Description: In vitro cytotoxic activity (MTT) assay, HL60. Type of assay: cell-based. Conditions: Homo sapiens, HL-60; HL60 (leukemia) cells, exposed for 96 hours; read-out: IC50, concentration eliciting 50% inhibition of cell proliferation. As to the method:
as §1

pIC50: −log10 of the molar value.

T1 sequence (P68400 whole entry): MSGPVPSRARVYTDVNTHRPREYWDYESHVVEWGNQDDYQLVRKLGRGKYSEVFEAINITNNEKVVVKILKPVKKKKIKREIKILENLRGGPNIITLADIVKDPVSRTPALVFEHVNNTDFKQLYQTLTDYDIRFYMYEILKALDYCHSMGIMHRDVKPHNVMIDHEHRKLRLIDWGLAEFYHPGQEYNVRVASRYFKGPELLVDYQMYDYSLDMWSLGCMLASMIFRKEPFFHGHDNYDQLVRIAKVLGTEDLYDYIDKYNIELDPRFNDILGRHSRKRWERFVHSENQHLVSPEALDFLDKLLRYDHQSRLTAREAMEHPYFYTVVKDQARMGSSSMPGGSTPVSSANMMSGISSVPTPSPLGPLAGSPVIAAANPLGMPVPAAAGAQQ
T1 sequence (P67870 whole entry partner): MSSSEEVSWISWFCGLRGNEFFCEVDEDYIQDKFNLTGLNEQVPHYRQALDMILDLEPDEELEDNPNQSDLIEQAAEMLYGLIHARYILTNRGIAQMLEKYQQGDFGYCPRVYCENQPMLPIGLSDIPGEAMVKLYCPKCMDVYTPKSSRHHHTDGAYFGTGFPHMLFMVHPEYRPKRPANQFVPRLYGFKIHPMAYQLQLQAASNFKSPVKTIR

Turning to `Clc1cccc(Nc2nc3ccncc3c3[nH]c4ccncc4c23)c1` [Compound 1, N-(3-chlorophenyl)-11H-pyrido[3′,4′:4,5]pyrrolo[3,2-c][1,6]naphthyridin-6-amine], the pIC50 in the assay on A375 (melanoma) was 5.36; with HCT116 (colon) it was 5.89; with PC3 (prostate) it was 6.00; in the assay on MCF7 (breast), 5.51; in the assay with MIAPaCa-2 (pancreas) it was 5.96; with MDA-MB-231 (breast), 5.59. In addition, the pIC50 in assay [1] is 7.54; with H1299 (lung), 5.92; in the assay on HL60 (leukemia) it was 5.46.

The values above are taken from patent publication US11964976B1, “Substituted pyrido[3′,4′:4,5]pyrrolo[3,2-c][1,6]naphthyridines as CK2 inhibitors” (KING FAISAL UNIVERSITY, priority 2023, dated 2024).
